Source: BigSolDB 2.1

A solubility (mole fraction) (in isobutanol, 297.15 K) of 0.0102, a solubility (mole fraction) (in isobutanol, 300.65 K) of 0.0119 and a solubility (mole fraction) (in isobutanol, 303.45 K) of 0.0138 were found for Cc1cccc(C(=O)O)c1[N+](=O)[O-] in this work. For the same compound, the solubility (mole fraction) (in isobutanol, 306.55 K) was 0.0161, the solubility (mole fraction) (in isobutanol, 311.15 K) was 0.0193 and the solubility (mole fraction) (in isobutanol, 315.05 K) was 0.0227. For the same compound, the solubility (mole fraction) (in isobutanol, 317.85 K) was 0.0268, the solubility (mole fraction) (in isobutanol, 322.15 K) was 0.0314 and the solubility (mole fraction) (in isobutanol, 326.25 K) was 0.0367. It also gave a solubility (mole fraction) (in isobutanol, 330.35 K) of 0.0425, a solubility (mole fraction) (in isobutanol, 333.45 K) of 0.0486 and a solubility (mole fraction) (in isobutanol, 337.15 K) of 0.0558. The solubility (mole fraction) (in n-butanol, 300.75 K) was 0.0177, the solubility (mole fraction) (in n-butanol, 304.15 K) was 0.0199 and the solubility (mole fraction) (in n-butanol, 307.55 K) was 0.0228. It also gave a solubility (mole fraction) (in n-butanol, 312.55 K) of 0.0264, a solubility (mole fraction) (in n-butanol, 316.15 K) of 0.0304 and a solubility (mole fraction) (in n-butanol, 319.85 K) of 0.0351. It also gave a solubility (mole fraction) (in n-butanol, 324.15 K) of 0.0406, a solubility (mole fraction) (in n-butanol, 328.25 K) of 0.0466 and a solubility (mole fraction) (in n-butanol, 332.25 K) of 0.0529. For the same compound, the solubility (mole fraction) (in n-butanol, 335.95 K) was 0.0597, the solubility (mole fraction) (in n-butanol, 339.95 K) was 0.0676 and the solubility (mole fraction) (in n-butanol, 343.45 K) was 0.0742. For the same compound, the solubility (mole fraction) (in sec-butanol, 305.05 K) was 0.024, the solubility (mole fraction) (in sec-butanol, 307.65 K) was 0.0272 and the solubility (mole fraction) (in sec-butanol, 311.15 K) was 0.0314. It also gave a solubility (mole fraction) (in sec-butanol, 315.25 K) of 0.0373, a solubility (mole fraction) (in sec-butanol, 319.85 K) of 0.0447 and a solubility (mole fraction) (in sec-butanol, 323.95 K) of 0.053. It also gave a solubility (mole fraction) (in sec-butanol, 328.85 K) of 0.0622, a solubility (mole fraction) (in sec-butanol, 333.35 K) of 0.0718 and a solubility (mole fraction) (in sec-butanol, 337.65 K) of 0.0817. It also gave a solubility (mole fraction) (in sec-butanol, 342.25 K) of 0.0921, a solubility (mole fraction) (in sec-butanol, 346.25 K) of 0.102 and a solubility (mole fraction) (in tert-butanol, 301.35 K) of 0.0307. The solubility (mole fraction) (in tert-butanol, 304.05 K) was 0.0328, the solubility (mole fraction) (in tert-butanol, 306.25 K) was 0.0366 and the solubility (mole fraction) (in tert-butanol, 310.05 K) was 0.0442. For the same compound, the solubility (mole fraction) (in tert-butanol, 314.75 K) was 0.0531, the solubility (mole fraction) (in tert-butanol, 318.95 K) was 0.0619 and the solubility (mole fraction) (in tert-butanol, 323.05 K) was 0.0711. It also gave a solubility (mole fraction) (in tert-butanol, 327.35 K) of 0.0802, a solubility (mole fraction) (in tert-butanol, 331.45 K) of 0.0898 and a solubility (mole fraction) (in tert-butanol, 335.95 K) of 0.0999. For the same compound, the solubility (mole fraction) (in tert-butanol, 340.65 K) was 0.111.

A solubility (mole fraction) (in isobutanol, 306.95 K) of 0.009, a solubility (mole fraction) (in isobutanol, 309.55 K) of 0.0105 and a solubility (mole fraction) (in isobutanol, 315.75 K) of 0.0132 were found for Cc1cc(C(=O)O)ccc1[N+](=O)[O-] in this work. The solubility (mole fraction) (in isobutanol, 319.55 K) was 0.0158, the solubility (mole fraction) (in isobutanol, 323.85 K) was 0.0192 and the solubility (mole fraction) (in isobutanol, 328.95 K) was 0.0235. It also gave a solubility (mole fraction) (in isobutanol, 333.95 K) of 0.0283, a solubility (mole fraction) (in isobutanol, 337.95 K) of 0.0332 and a solubility (mole fraction) (in isobutanol, 342.15 K) of 0.0391. For the same compound, the solubility (mole fraction) (in isobutanol, 346.65 K) was 0.0457, the solubility (mole fraction) (in n-butanol, 305.15 K) was 0.013 and the solubility (mole fraction) (in n-butanol, 309.55 K) was 0.0153. For the same compound, the solubility (mole fraction) (in n-butanol, 314.95 K) was 0.0177, the solubility (mole fraction) (in n-butanol, 318.35 K) was 0.0201 and the solubility (mole fraction) (in n-butanol, 321.35 K) was 0.0228. For the same compound, the solubility (mole fraction) (in n-butanol, 324.35 K) was 0.026, the solubility (mole fraction) (in n-butanol, 327.95 K) was 0.03 and the solubility (mole fraction) (in n-butanol, 332.05 K) was 0.0349. It also gave a solubility (mole fraction) (in n-butanol, 336.75 K) of 0.0405, a solubility (mole fraction) (in n-butanol, 341.25 K) of 0.047 and a solubility (mole fraction) (in n-butanol, 345.35 K) of 0.0546. For the same compound, the solubility (mole fraction) (in sec-butanol, 304.55 K) was 0.0142, the solubility (mole fraction) (in sec-butanol, 307.65 K) was 0.0166 and the solubility (mole fraction) (in sec-butanol, 311.55 K) was 0.0199. The solubility (mole fraction) (in sec-butanol, 316.25 K) was 0.0243, the solubility (mole fraction) (in sec-butanol, 321.35 K) was 0.0297 and the solubility (mole fraction) (in sec-butanol, 326.15 K) was 0.0359. The solubility (mole fraction) (in sec-butanol, 331.15 K) was 0.0428, the solubility (mole fraction) (in sec-butanol, 335.25 K) was 0.05 and the solubility (mole fraction) (in sec-butanol, 339.25 K) was 0.0578. The solubility (mole fraction) (in sec-butanol, 343.55 K) was 0.0667, the solubility (mole fraction) (in tert-butanol, 304.35 K) was 0.0193 and the solubility (mole fraction) (in tert-butanol, 306.95 K) was 0.0229. For the same compound, the solubility (mole fraction) (in tert-butanol, 310.15 K) was 0.0271, the solubility (mole fraction) (in tert-butanol, 314.95 K) was 0.0321 and the solubility (mole fraction) (in tert-butanol, 317.95 K) was 0.0372. The solubility (mole fraction) (in tert-butanol, 321.65 K) was 0.043, the solubility (mole fraction) (in tert-butanol, 325.85 K) was 0.0493 and the solubility (mole fraction) (in tert-butanol, 329.45 K) was 0.0556. The solubility (mole fraction) (in tert-butanol, 333.05 K) was 0.0627, the solubility (mole fraction) (in tert-butanol, 336.35 K) was 0.0703 and the solubility (mole fraction) (in tert-butanol, 339.65 K) was 0.0791. The solubility (mole fraction) (in tert-butanol, 343.65 K) was 0.0878 and the solubility (mole fraction) (in tert-butanol, 345.25 K) was 0.0915.

A solubility (mole fraction) (in isobutanol, 293.75 K) of 0.113, a solubility (mole fraction) (in isobutanol, 299.15 K) of 0.133 and a solubility (mole fraction) (in isobutanol, 305.75 K) of 0.153 were found for Cc1ccc([N+](=O)[O-])c(C(=O)O)c1 in this work. For the same compound, the solubility (mole fraction) (in isobutanol, 311.15 K) was 0.173, the solubility (mole fraction) (in isobutanol, 317.55 K) was 0.193 and the solubility (mole fraction) (in isobutanol, 322.95 K) was 0.209. The solubility (mole fraction) (in isobutanol, 328.15 K) was 0.227, the solubility (mole fraction) (in isobutanol, 333.65 K) was 0.243 and the solubility (mole fraction) (in n-butanol, 290.65 K) was 0.167. It also gave a solubility (mole fraction) (in n-butanol, 292.15 K) of 0.172, a solubility (mole fraction) (in n-butanol, 294.15 K) of 0.183 and a solubility (mole fraction) (in n-butanol, 297.75 K) of 0.199. For the same compound, the solubility (mole fraction) (in n-butanol, 302.85 K) was 0.218, the solubility (mole fraction) (in n-butanol, 307.15 K) was 0.237 and the solubility (mole fraction) (in n-butanol, 311.65 K) was 0.256. For the same compound, the solubility (mole fraction) (in n-butanol, 315.15 K) was 0.275, the solubility (mole fraction) (in n-butanol, 319.75 K) was 0.295 and the solubility (mole fraction) (in n-butanol, 323.85 K) was 0.316. It also gave a solubility (mole fraction) (in n-butanol, 328.15 K) of 0.338, a solubility (mole fraction) (in sec-butanol, 290.15 K) of 0.185 and a solubility (mole fraction) (in sec-butanol, 292.45 K) of 0.199. It also gave a solubility (mole fraction) (in sec-butanol, 297.65 K) of 0.225, a solubility (mole fraction) (in sec-butanol, 303.15 K) of 0.253 and a solubility (mole fraction) (in sec-butanol, 309.95 K) of 0.28. The solubility (mole fraction) (in sec-butanol, 315.35 K) was 0.305, the solubility (mole fraction) (in sec-butanol, 321.15 K) was 0.329 and the solubility (mole fraction) (in sec-butanol, 326.15 K) was 0.352. The solubility (mole fraction) (in sec-butanol, 330.55 K) was 0.372, the solubility (mole fraction) (in tert-butanol, 301.55 K) was 0.255 and the solubility (mole fraction) (in tert-butanol, 305.15 K) was 0.274. It also gave a solubility (mole fraction) (in tert-butanol, 309.85 K) of 0.295, a solubility (mole fraction) (in tert-butanol, 314.45 K) of 0.318 and a solubility (mole fraction) (in tert-butanol, 318.15 K) of 0.341. The solubility (mole fraction) (in tert-butanol, 322.75 K) was 0.366, the solubility (mole fraction) (in tert-butanol, 327.35 K) was 0.392 and the solubility (mole fraction) (in tert-butanol, 332.05 K) was 0.418. It also gave a solubility (mole fraction) (in tert-butanol, 336.55 K) of 0.445 and a solubility (mole fraction) (in tert-butanol, 339.55 K) of 0.473.
